Source: patent US20220062317A1, “NA+/K+ ATPASE INHIBITORS FOR USE IN THE PREVENTION OR TREATMENT OF METASTASIS” (UNIVERSITÄT BASEL, priority 2018, published 2022)

Legend:
BR16 xenografts = experiment: BR16 xenograft (mammary fat pad), spontaneous CTC clusters and metastasis; format: in vivo, NSG mice; conditions: ouabain daily for three weeks
Description: Blood specimens for CTC analysis were obtained from University Hospital Basel after informed patient consent according to protocol EKNZ BASEC 2016-00067 and EK 321/10, which received ethical approval from the Swiss authorities (EKNZ, Ethics Committee northwest/central Switzerland). An average of 7.5 ml of blood per patient was drawn in EDTA vacutainers. Within 1 hr from blood draw, the blood was processed through Parsortix GEN3D6.5 Cell Separation Cassette (Angle Europe). For mouse studies, blood was retrieved via cardiac puncture and 1 ml of blood was similarly processed through a Parsortix device. Captured CTCs were further stained on Parsortix cassette with EpCAM-AF488 conjugated (CellSignaling, Cat #CST5198), HER2-AF488 (#324410, BioLegend), EGFR-FITC conjugated (GeneTex, Cat #GTX11400) and CD45-BV605 conjugated (Biolegend, Cat #304042 (anti-human); Cat #103140 (anti-mouse)) antibodies. For all other models (xenografts), carrying cancer cells stably expressing a GFP-Luciferase reporter, only anti-CD45 staining was performed, while CTCs were identified based on GFP expression. The number of captured CTCs, including single CTCs, CTC clusters and CTC-WBC clusters, was determined while cells were still in the cassette. CTCs were then released from the cassette in DPBS (#14190169, Gibco) onto ultra-low attachment plates (#3471-COR, Corning). Representative pictures were taken at 40× magnification with Leica DM14000 fluorescent microscope using Leica LAS and analyzed with ImageJ.
For tail vein experiments, NOD SCID Gamma (NSG) mice (Jackson Labs) were injected with 1×10^6 BR16-mCherry cells resuspended in 100 μl D-PBS and monitored with IVIS Lumina II (Perkin Elmer). For CTC xenograft mouse model isolation, 1×10^6 LM2-GFP, 1×10^6 BRx50-GFP or 1×10^6 BR16-GFP cells were resuspended in 100 μl of 50% Cultrex PathClear Reduced Growth Factor Basement Membrane Extract (R&D Biosystems, Cat #3533-010-02) in D-PBS and injected orthotopically in NSG mice. Blood draw was performed 4-5 weeks after tumor onset for LM2 cells, 5-6 months after tumor onset for BR16 and 6-7 months after tumor onset for BRx50 cells.

BR16 CTC-derived cells = experiment: FDA-approved compound screen for CTC cluster dissociation (high content imaging); format: cell-based, human; conditions: even at lowest concentration tested (0.1 μM), 2 days, hypoxia
Description: In order to identify actionable vulnerabilities of CTC clusters, and to test whether the epigenetic and transcriptional features of clustered CTCs are reversible upon cluster dissociation into single cells the following steps were undertaken. First, the expression of all known cell-cell junction (CCJ) components in patient samples obtained from normal breast (TGCA REF), breast cancer (TOGA REF), single CTCs and CTC clusters were assessed (Aceto et al. Cell 2014). While breast cancer cells tend to only partially reduce their CCJ repertoire compared to normal breast cells, CTCs express only a small fraction of CCJ components, likely as a consequence to their increased motility. Yet, CTC clusters retain a higher number of CCJs as compared to single CTCs. […] To this end, 2′486 FDA-approved compounds were evaluated for their ability to dissociate clusters of human breast CTC-derived cells. Cluster dissociation was assessed using a high content screening microscope and comparing cells treated with each individual compound to steady state clustered BR16 cells and 40 μm-filtered BR16 single cell suspension as negative and positive controls, respectively (FIG. 4a). […] For the majority of the 2′486 FDA-approved compounds, when using a 5 μM concentration for 2 days in hypoxic conditions, no detectable reduction in cell viability (>70% viability) nor mean cluster size (>450 μm2) in BR16 CTC-derived cells was observed. […] These compounds include inhibitors of Na^+/K^+ ATPases (n=6), HDACs (n=2), nucleotide biosynthesis (n=5), kinases (n=4), GPCRs (n=2), cholesterol biosynthesis (n=1), nuclear export (n=1), tubulin (n=9), as well as DNA binding compounds (n=8) and antibiotics (n=1).
A library containing 2,486 FDA-approved compounds was purchased from the Nexus Platform ETH Zurich. Each compound was resuspended using CTC medium at a 15 μM concentration and 20 μl were aliquoted in duplicate in a total of 64 Flat Bottom Clear Ultra Low attachment 96-well plates (Corning, Cat #3474).
To reduce cluster size in CTC derived cell lines, a 40 μm cell strainer was used (Corning, Cat #431750). […] Plates were incubated in hypoxia (5% oxygen) for 2 days and then 20 μl were transferred into a 96 well Black/clear Tissue culture treated plate (BD Falcon, Cat #353219) containing 40 μl of D-PBS (Invitrogen, Cat #14190169) and stained for 1 hr at 37° C. with a final concentration of 4 μM Hoechst 34580 (Invitrogen, Cat #H21486), 2 μM TMRM (Invitrogen, Cat #T668) and 4 μM TOTO-3 (Invitrogen, Cat #T3604). For each plate, two positive controls (non-treated cells) and two negative controls (non-treated and […] cells) were included. Z-factors were calculated per individual plate using the following formula: Z′=1−3(σs+σc)/|μs−μc|^3 (σ: standard deviation, μ: mean, s: positive control and c: negative control) (Martin et al., PLoS One 9, e88338, 2014) and ranged between 0.62-0.937. Plates were scanned using Operetta High Content Imaging System (Perkin Elmer) and cluster analysis was performed using Harmony High Content Imaging and Analysis Software (Perkin Elmer).

[1] = system: BRx50 human CTC-derived cells; experiment: as above; format: cell-based; conditions: even at lowest concentration tested (0.1 μM)

C[C@@H]1O[C@@H](O[C@H]2C[C@@H](O)[C@]3(CO)[C@H]4[C@H](O)C[C@]5(C)[C@@H](C6=CC(=O)OC6)CC[C@]5(O)[C@@H]4CC[C@]3(O)C2)[C@H](O)[C@H](O)[C@H]1O [ouabain, Ouabain]
frequency of single CTCs (BR16 xenografts): increasing the frequency
frequency of spontaneously-generated CTC clusters (BR16 xenografts): reduced the frequency
overall CTC numbers (BR16 xenografts): without altering
size of the primary tumor (BR16 xenografts): without altering
suppression of the total metastatic burden (BR16 xenografts): 80.7 fold
mean cluster size (BR16 CTC-derived cells): significant decrease in mean cluster size
mean cluster size [1]: significant decrease in mean cluster size
